Source: patent US5698541A, “2,4-diphosphonoglutaric acid derivatives, processes for their production and pharmaceutical agents containing these compounds” (Boehringer Mannheim GmbH, priority 1994, dated 1997)

Tested on: non-stimulated bone resorption
Assay: Inhibition of non-stimulated bone resorption by determining the excretion of [3H]-tetracycline in urine
Format: in vivo
Settings: rats, subcutaneous, 2 × 200 mg/kg (8 a.m. and 5 p.m. on sixth day of urine collection); reduced [3H]-tetracycline excretion in urine on eighth day
Protocol: Inhibition of non-stimulated bone resorption by determining the excretion of [^3 H]-tetracycline in urine:
From birth onwards rats received a twice-weekly injection of increasing amounts of a solution of 3.7×10^5 Bq/ml (10 μCi/ml) [7-^3 H]-tetracycline ([^3 H]TC); New England Nuclear, Boston, Mass.) with a specific activity of 679 mCi/mmol. The volume per injection is increased from 50 μl/week to 250 μl in the fifth week and kept at this level for a further week. The total amount of administered [^3 H]TC was 20 μCi per rat. 51-day-old rats are transferred to individual metabolic cages and received a group feeding with feed which contained 0.5% Ca and 0.35% P. This feed was produced by addition of appropriate amounts of calcium and phosphate (SODI 2134, "Klingenthalmuhle"). The animals received distilled water ad libitum during the entire duration of the experiment. Collection of 24 hour urine was begun after 61 days. The urine was collected daily at 11 o'clock; the animals also received food at this time. On the sixth day after the start of the urine collection, the animals received subcutaneous injections of the substance (at 8 a.m. and 5 p.m.). […] The ^3 H-TC in urine is determined by liquid scintillation by adding 10 ml of the scintillator Pico-Fluor 30 (Packard International, Zurich, Switzerland) to 1 ml of the urine. […]

## O=C(O)C(CC(CCCN1CCCC1)(C(=O)O)P(=O)(O)O)P(=O)(O)O (centres unmarked) [Example 4, 2,4-diphosphono-2-pyrrolidinopropylglutaric acid]
  % rel. inhibition/dosage: 37%

## NCCCCC(CC(C(=O)O)P(=O)(O)O)(C(=O)O)P(=O)(O)O (centres unmarked) [Example 5]
  % rel. inhibition/dosage: 45%
